Source: ChEMBL document CHEMBL1129417, “Glucose transport-enhancing and hypoglycemic activity of 2-methyl-2-phenoxy-3-phenylpropanoic acids” (1996)

How the values were obtained:
L6 [1] = assay: compound was evaluated for their acute effects in vitro by measuring 2-Deoxyglucose (2DG) uptake in vehicle treated L6 […] at 3 uM dose.; type: functional
Mus musculus [2] = assay: In vivo hypoglycemic activity expressed as glucose lowering relative to positive control in 6-8 week old C57BL/6J ob/ob mouse at 10 mg/kg; type: functional
Mus musculus [3] = assay: In vivo hypoglycemic activity expressed as glucose lowering relative to positive control in 6-8 week old C57BL/6J ob/ob mouse at 1 mg/kg.; type: functional
Mus musculus [4] = assay: In vivo hypoglycemic activity expressed as glucose lowering relative to positive control in 6-8 week old C57BL/6J ob/ob mouse at 5 mg/kg.; type: functional
Rattus norvegicus [5] = species: Rattus norvegicus; assay: Inhibition of gluconeogenesis in rat; type: functional; conditions: Rattus norvegicus; read-out: ED50
L6 [6] = assay: compound was evaluated for their acute effects in vitro by measuring 2-Deoxyglucose (2DG) uptake in vehicle treated L6 […] at 30 uM dose.; type: functional
L6 [7] = assay: compound was evaluated for their acute effects in vitro by measuring 2-Deoxyglucose (2DG) uptake in vehicle treated L6 […] at 10 uM dose.; type: functional
3T3-L1 [8] = assay: compound was evaluated for their acute effects in vitro by measuring 2-Deoxyglucose (2DG) uptake in vehicle treated 3T3-L1 adipocytes at concentration of 10 micro M; type: functional
3T3-L1 [9] = assay: compound was evaluated for their acute effects in vitro by measuring 2-Deoxyglucose (2DG) uptake in vehicle treated 3T3-L1 adipocytes at concentration of 30 micro M; type: functional
Mus musculus [10] = assay: compound was tested in vivo for hypoglycemic activity in 6-8 week old C57BL/6J ob/ob mouse at 0.5 mg/kg; type: functional
3T3-L1 [11] = assay: In vitro by measurements of 2-Deoxyglucose (2DG) uptake in vehicle treated 3T3-L1 adipocytes at 3 uM dose.; type: functional
3T3-L1 [12] = assay: compound was evaluated for their acute effects in vitro by measuring 2-Deoxyglucose (2DG) uptake in vehicle treated 3T3-L1 adipocytes at concentration of 3 micro M; type: functional
3T3-L1 [13] = assay: compound was evaluated for their acute effects in vitro by measuring 2-Deoxyglucose (2DG) uptake in vehicle treated 3T3-L1 adipocytes at 300 uM dose.; type: functional
3T3-L1 [14] = assay: Acute effects in vitro by measuring 2-deoxyglucose (2DG) uptake in vehicle treated 3T3-L1 adipocytes at 10 uM dose.; type: functional
Mus musculus [15] = assay: compound was tested in vivo for hypoglycemic activity expressed as Glucose lowering relative to positive control in 6-8 week old C57BL/6J ob/ob mouse at 0.5 mg/kg; type: functional
Mus musculus [16] = assay: compound was tested in vivo for hypoglycemic activity expressed as Glucose lowering relative to positive control in 6-8 week old C57BL/6J ob/ob mouse at 0.1 mg/kg; type: functional
3T3-L1 [17] = assay: compound was evaluated for their acute effects in vitro by measuring 2-Deoxyglucose (2DG) uptake in vehicle treated 3T3-L1 adipocytes at 10 uM dose.; type: functional
Mus musculus [18] = assay: compound was tested in vivo for hypoglycemic activity in 6-8 week old C57BL/6J ob/ob mouse at 10 mg/kg; type: functional
3T3-L1 [19] = assay: compound was evaluated for their acute effects in vitro by measuring 2-Deoxyglucose (2DG) uptake in vehicle treated 3T3-L1 adipocytes at 60 uM dose.; type: functional
Rattus norvegicus [20] = species: Rattus norvegicus; assay: Compound was tested for inhibition of gluconeogenesis; type: functional; conditions: Rattus norvegicus; read-out: ED50
3T3-L1 [21] = assay: compound was evaluated for their acute effects in vitro by measuring 2-Deoxyglucose (2DG) uptake in vehicle treated 3T3-L1 adipocytes at 30 uM dose.; type: functional
Mus musculus [22] = assay: compound was tested in vivo for hypoglycemic activity in 6-8 week old C57BL/6J ob/ob mouse at 50 mg/kg; type: functional
L6 [23] = assay: Compound was evaluated for their acute effects in vitro by measuring 2-Deoxyglucose (2DG) uptake in vehicle treated L6 […] at 30 uM dose.; type: functional
L6 [24] = assay: Compound was evaluated for their acute effects in vitro by measuring 2-Deoxyglucose (2DG) uptake in vehicle treated L6 […] at 10 uM dose.; type: functional
Mus musculus [25] = assay: Glucose(mg/dl) level, on day 5 when compound given at 5 mg/kg/day in pair feeding study with ob/ob mice; type: functional
L6 [26] = assay: Compound was evaluated for their acute effects in vitro by measuring 2-Deoxyglucose (2DG) uptake in vehicle treated L6 […] at 100 uM dose.; type: functional
3T3-L1 [27] = assay: Acute effects in vitro by measuring 2-deoxyglucose (2DG) uptake in vehicle treated 3T3-L1 adipocytes at 30 uM dose.; type: functional
Rattus norvegicus [28] = species: Rattus norvegicus; assay: Percentage inhibition of Glucagon stimulated Gluconeogenesis in Isolated Rat Hepatocytes in vitro; type: functional, Hepatocyte
Mus musculus [29] = assay: compound was tested in vivo for hypoglycemic activity expressed as Glucose lowering relative to positive control in 6-8 week old C57BL/6J ob/ob mouse at 50 mg/kg; type: functional
3T3-L1 [30] = assay: compound was evaluated for their acute effects in vitro by measuring 2-Deoxyglucose (2DG) uptake in vehicle treated 3T3-L1 adipocytes at 1 uM dose.; type: functional
L6 [31] = assay: Compound was evaluated for their acute effects in vitro by measuring 2-Deoxyglucose (2DG) uptake in vehicle treated L6 […] at 1 uM dose.; type: functional
3T3-L1 [32] = assay: In vitro measurements 2-Deoxyglucose (2DG) uptake in vehicle treated 3T3-L1 adipocytes at 100 uM dose.; type: functional
3T3-L1 [33] = assay: compound was evaluated for their acute effects in vitro by measuring 2-Deoxyglucose (2DG) uptake in vehicle treated 3T3-L1 adipocytes at 0.3 uM dose.; type: functional
Mus musculus [34] = assay: compound was tested in vivo for hypoglycemic activity expressed as Glucose lowering relative to positive control in 6-8 week old C57BL/6J ob/ob mouse at 25 mg/kg; type: functional
L6 [35] = assay: Compound was evaluated for their acute effects in vitro by measuring 2-Deoxyglucose (2DG) uptake in vehicle treated L6 […] at 60 uM dose.; type: functional
Mus musculus [36] = assay: Basal glucose(mg/dl) level when compound given at 5 mg/kg/day in pair feeding study with ob/ob mice; type: functional
Rattus norvegicus [37] = species: Rattus norvegicus; assay: Percentage inhibition of basal stimulated Gluconeogenesis in Isolated Rat Hepatocytes in vitro; type: functional, Hepatocyte
L6 [38] = assay: Compound was evaluated for their acute effects in vitro by measuring 2-Deoxyglucose (2DG) uptake in vehicle treated L6 […] at 3 uM dose.; type: functional
3T3-L1 [39] = assay: In vitro measurements of 2-Deoxyglucose (2DG) uptake in vehicle treated 3T3-L1 adipocytes at 60 uM dose.; type: functional
Mus musculus [40] = assay: Net body weight delta (g)when compound given at 5 mg/kg/day in pair feeding study with ob/ob mice; type: functional
Mus musculus [41] = assay: Food intake (g/5 mice/ 5 days) when compound given at 5 mg/kg/day in pair feeding study with ob/ob mice; type: functional
Mus musculus [42] = assay: compound was tested in vivo for hypoglycemic activity expressed as Glucose lowering relative to positive control in 6-8 week old C57BL/6J ob/ob mouse at 20 mg/kg; type: functional
Mus musculus [43] = assay: compound was tested in vivo for hypoglycemic activity expressed as Glucose lowering relative to positive control in 6-8 week old C57BL/6J ob/ob mouse at 2.5 mg/kg; type: functional
Rattus norvegicus [44] = species: Rattus norvegicus; assay: Percentage inhibition of Glucagon- stimulated Gluconeogenesis in Isolated Rat Hepatocytes in vitro; type: functional, Hepatocyte

CC(C)c1ccc(OC(C)(Cc2cccc(C(F)(F)F)c2)C(=O)[O-])cc1.[Na+] (centres undefined)
Basal uptake (L6 [1]): 129% | Hypoglycemic activity (Mus musculus [2]): 64% | Hypoglycemic activity (Mus musculus [3]): 44% | Hypoglycemic activity (Mus musculus [4]): 46% | ED50 (Rattus norvegicus [5]): 5 mg/kg | Basal uptake (L6 [6]): 121% | Basal uptake (L6 [7]): 104%

CCc1cccc(CC(C)(Oc2ccc(C(C)C)cc2)C(=O)[O-])c1.[Na+] (centres undefined)
Basal uptake (3T3-L1 [8]): 194% | Hypoglycemic activity (Mus musculus [2]): 147% | Hypoglycemic activity (Mus musculus [3]): 76% | Hypoglycemic activity (Mus musculus [4]): 101% | Basal uptake (3T3-L1 [9]): 246% | Hypoglycemic (Mus musculus [10]): <0 | ED50 (Rattus norvegicus [5]): 0.5 mg/kg | Basal uptake (3T3-L1 [11]): 102% | Basal uptake (3T3-L1 [12]): 131% | Basal uptake (3T3-L1 [13]): 117% | Basal uptake (3T3-L1 [14]): 127%

CCc1cccc(CC(C)(Oc2ccc(Cc3ccccc3)cc2)C(=O)[O-])c1.[Na+] (centres undefined)
Basal uptake (3T3-L1 [8]): 179% | Hypoglycemic activity (Mus musculus [2]): 101% | Hypoglycemic activity (Mus musculus [3]): 87% | Hypoglycemic activity (Mus musculus [4]): 102% | Hypoglycemic activity (Mus musculus [15]): 52% | Basal uptake (3T3-L1 [9]): 265% | Hypoglycemic activity (Mus musculus [16]): 73% | ED50 (Rattus norvegicus [5]): 0.1 mg/kg | Basal uptake (3T3-L1 [12]): 128%

CC(C)c1ccc(SC(C)(Cc2ccc(Cl)cc2)C(=O)[O-])cc1.[Na+] (centres undefined)
Basal uptake (3T3-L1 [17]): 83% | Hypoglycemic activity (Mus musculus [18]): 31% | Basal uptake (3T3-L1 [19]): 187% | ED50 (Rattus norvegicus [20]): > 10 mg/kg | Basal uptake (3T3-L1 [21]): 119%

CC(C)c1ccc(SC(Cc2ccc(Cl)cc2)C(=O)O)cc1 (centres undefined)
Hypoglycemic activity (Mus musculus [18]): 0% | Basal uptake (3T3-L1 [19]): 102% | ED50 (Rattus norvegicus [20]): 10 mg/kg | Hypoglycemic activity (Mus musculus [22]): 90%

CC(C)c1ccc(OC(C)(Cc2ccc(Cl)cc2)C(=O)O)cc1 (stereo in doubt; 26)
Basal uptake (L6 [23]): 87% | Basal uptake (3T3-L1 [8]): 200% | Hypoglycemic activity (Mus musculus [2]): 111% | Basal uptake (L6 [24]): 96% | Hypoglycemic activity (Mus musculus [3]; 1 mg/kg): 50% | Hypoglycemic activity (Mus musculus [4]; 5 mg/kg): 77% | Glucose (Mus musculus [25]): 223 mg/dL | Basal uptake (L6 [26]): 88% | Basal uptake (3T3-L1 [9]): 291% | Basal uptake (3T3-L1 [27]): 100% | Inhibition (Rattus norvegicus [28]): 22% | ED50 (Rattus norvegicus [5]): 1 mg/kg | Hypoglycemic activity (Mus musculus [29]): 83% | Basal uptake (3T3-L1 [11]): 98% | Basal uptake (3T3-L1 [30]): 86% | Basal uptake (L6 [31]): 101% | Basal uptake (3T3-L1 [32]): 220% | Basal uptake (3T3-L1 [12]): 139% | Basal uptake (3T3-L1 [33]): 106% | Hypoglycemic activity (Mus musculus [34]): 90% | Basal uptake (L6 [35]): 108% | Basal uptake (3T3-L1 [14]): 94% | Basal glucose (Mus musculus [36]): 341 mg/dL | Inhibition (Rattus norvegicus [37]): 36% | Basal uptake (L6 [38]): 97% | Basal uptake (3T3-L1 [39]): 110% | Net body weight delta (Mus musculus [40]): 0.4 g | Food intake (Mus musculus [41]): 132 g 5mice-1 5days-1 | Hypoglycemic activity (Mus musculus [42]): 104%

CC(C)c1ccc(OC(C)(Cc2ccc(Cl)cc2)C(=O)O)cc1 (stereo in doubt; 28)
Hypoglycemic activity (Mus musculus [3]; 1 mg/kg): 47% | Hypoglycemic activity (Mus musculus [4]; 5 mg/kg): 100% | Hypoglycemic activity (Mus musculus [43]): 88% | Basal uptake (3T3-L1 [32]): 229%

CC(C)c1ccc(OC(Cc2ccccc2)C(=O)O)cc1 (centres undefined)
ED50 (Rattus norvegicus [5]): 50 mg/kg | Hypoglycemic activity (Mus musculus [29]): 50% | Basal uptake (3T3-L1 [32]): 79% | Inhibition (Rattus norvegicus [37]): 41% | Inhibition (Rattus norvegicus [44]): 25%
